Test results published in patent US20240228446A1, “PREPARATION METHOD FOR BICYCLIC COMPOUND AND APPLICATION AS ANTIFUNGAL AGENT” (priority 2021, published 2024).
Values after ≈ are worked out from the molar mass of the structure shown.

system: Candida albicans ATCC MYA-2876; test: Minimal inhibitory concentration (MIC) test on fungal growth (CLSI M27, yeasts); assay type: cell-based; details: Candida albicans, 24 h, read-out: MIC Candida albicans ATCC MYA-2876
Protocol: • RPMI1640 medium: Brand: Gibco, article number: 31800-014 • Sabouraud dextrose agar (SDA): Brand: Hope Bio, article number: HB0253-81 • Voriconazole: Brand: Adamas, article number: 22105A • Amphotericin B: Brand: AbCam, article number: ab141199
MIC test was conducted in accordance with the guidelines and requirements of CLSI M27 (for yeasts) and M38 (for Aspergillus).
Strain preparation: The strains were inoculated 1 day in advance by streaking on SDA plates with glycerol strains stored at −80° C. The strains were cultured at 35° C. and 40 to 60% humidity for 18 to 24 hours. Streak inoculation of Aspergillus fumigatus and Cryptococcus neoformans was required to be done 3 days and 2 days in advance, respectively.
Preparation of culture medium and compounds: The liquid culture medium RPMI was prepared with pure water, and 0.165 mol/L MOPS was added to adjust the pH to 7.0. The mixture was filtered with a 0.22 μm-membrane filter, sterilized, and stored at 4° C. (no more than 3 months). 0.85% physiological saline was sterilized at 121° C. for 30 min and then stored at room temperature (no more than 1 week). The compounds were dissolved in DMSO to 12.8 mg/mL and stored at −20° C.
For yeast, 3 to 5 colonies were selected from the SDA plate on the day of testing and fully suspended in 5 mL of sterilized 0.85% physiological saline. The turbidity of the bacterial suspension was measured with a turbidimeter, and the turbidity was adjusted to approximately 0.2. The bacterial suspension was 50-fold and 20-fold (1000-fold in total) diluted in RPMI1640 medium, respectively, to serve as the inoculum. The final inoculum concentration was 500 to 2500 CFU/mL.
The compound was diluted to the highest 800 μg/mL (or 400 μg/mL) with DMSO, and a 10-step 2-fold gradient dilution was performed, resulting in 11 concentrations. 2 μL of the gradient-diluted compound was transferred to the corresponding wells of a 96-well plate, and then 198 μL of the inoculum was transferred to the test plate. The plate was incubated at 35° C. for 24 hours (Aspergillus fumigatus and Cryptococcus neoformans were incubated for 48 and 72 hours, respectively).
After the incubation, the growth of the fungi was visually observed. The lowest concentration of the compound that inhibited the growth of yeast by 50% (inhibited Aspergillus by 100%) was defined as the minimum inhibitory concentration (MIC, μg/mL). A magnifying glass or reading at OD530 nm could be used to assist in determining the MIC. Photos were taken of the test plates for record keeping.

| SMILES | MIC [µg/mL] |
| --- | --- |
| NC[C@H](O)COc1ccc(C23CC(C(F)(F)C(O)(Cn4cnnn4)c4ccc(F)cc4F)(C2)C3)cc1 (some centres unmarked) [Compound 52] | 1 (≈ 1.97 µM) |
| CC(C)NC[C@@H](O)COc1ccc(C23CC(C(F)(F)C(O)(Cn4cnnn4)c4ccc(F)cc4F)(C2)C3)cc1 (some centres unmarked) [Compound 54] | 0.5 (≈ 0.91 µM) |
| OC(COc1ccc(C23CC(C(F)(F)C(O)(Cn4cnnn4)c4ccc(F)cc4F)(C2)C3)cc1)CN1CCOCC1 (centres unmarked) [Compound 57] | 0.06 (≈ 0.104 µM) |
| CN(C)CCOc1ccc(C23CC(C(F)(F)C(O)(Cn4cnnn4)c4ccc(F)cc4F)(C2)C3)cc1 (centres unmarked) [Compound 64] | 0.06 (≈ 0.119 µM) |
| OC(Cn1cnnn1)(c1ccc(F)cc1F)C(F)(F)C12CC(c3ccc(Oc4ccccn4)cc3)(C1)C2 (centres unmarked) [Compound 71] | 0.03 (≈ 0.0587 µM) |
| COc1ccc(C23CC(C(F)(F)C(O)(Cn4cnnn4)c4ccc(F)cc4F)(C2)C3)cn1 (centres unmarked) [Compound 92] | 0.03 (≈ 0.0668 µM) |
| OCC(F)(F)CNc1ccc(C23CC(C(F)(F)C(O)(Cn4cnnn4)c4ccc(F)cc4F)(C2)C3)cn1 (centres unmarked) [Compound 104] | 0.03 (≈ 0.0568 µM) |
| OC(Cn1cnnn1)(c1ccc(F)cc1F)C(F)(F)C12CC(c3ccc(OCC(F)(F)F)cn3)(C1)C2 (centres unmarked) [Compound 105] | 0.016 (≈ 0.0309 µM) |
| OC(Cn1cnnn1)(c1ccc(F)cc1F)C(F)(F)C12CC(c3cnc(NCC(F)(F)F)nc3)(C1)C2 (centres unmarked) [Compound 111] | 0.016 (≈ 0.0309 µM) |
| OC(Cn1cnnn1)(c1ccc(F)cc1F)C(F)(F)C12CC(c3ccc(OCC(F)(F)F)nn3)(C1)C2 (centres unmarked) [Compound 114] | 0.06 (≈ 0.116 µM) |

same assay, conditions: Candida albicans; lowest concentration inhibiting growth of yeast by 50%; 35° C., 24 hours; RPMI1640; read-out: MIC Candida albicans ATCC MYA-2876

| MIC [µg/mL] | SMILES |
| --- | --- |
| 0.06 (≈ 0.123 µM) | OC(Cn1cnnn1)(c1ccc(F)cc1F)C(F)(F)C12CC(c3ccc(OC4CNC4)cc3)(C1)C2 (centres unmarked) [Compound 44] |
| 0.03 (≈ 0.0596 µM) | CN1CC(Oc2ccc(C34CC(C(F)(F)C(O)(Cn5cnnn5)c5ccc(F)cc5F)(C3)C4)cc2)C1 (centres unmarked) [Compound 45] |
| 0.03 (≈ 0.058 µM) | OC(Cn1cnnn1)(c1ccc(F)cc1F)C(F)(F)C12CC(c3ccc(OCC(F)(F)F)nc3)(C1)C2 (centres unmarked) [Compound 46] |
| 0.0078 (≈ 0.0151 µM) | OC(Cn1cncn1)(c1ccc(F)cc1F)C(F)(F)C12CC(c3ccc(OCC(F)(F)F)nc3)(C1)C2 (centres unmarked) [Compound 47] |
| 0.06 (≈ 0.125 µM) | OC(Cn1cnnn1)(CC12CC(c3ccc(OCC(F)(F)F)cc3)(C1)C2)c1ccc(F)cc1F (centres unmarked) [Compound 48] |
| 0.5 (≈ 0.91 µM) | CC(C)NC[C@H](O)COc1ccc(C23CC(C(F)(F)C(O)(Cn4cnnn4)c4ccc(F)cc4F)(C2)C3)cc1 (some centres unmarked) [Compound 53] |
| 0.25 (≈ 0.467 µM) | CN(C)C[C@@H](O)COc1ccc(C23CC(C(F)(F)C(O)(Cn4cnnn4)c4ccc(F)cc4F)(C2)C3)cc1 (some centres unmarked) [Compound 55] |
| 0.5 (≈ 0.934 µM) | CN(C)C[C@H](O)COc1ccc(C23CC(C(F)(F)C(O)(Cn4cnnn4)c4ccc(F)cc4F)(C2)C3)cc1 (some centres unmarked) [Compound 56] |
| 0.06 (≈ 0.104 µM) | O[C@H](COc1ccc(C23CC(C(F)(F)C(O)(Cn4cnnn4)c4ccc(F)cc4F)(C2)C3)cc1)CN1CCOCC1 (some centres unmarked) [Compound 58] |
| 0.13 (≈ 0.244 µM) | O=C1NC[C@H](COc2ccc(C34CC(C(F)(F)C(O)(Cn5cnnn5)c5ccc(F)cc5F)(C3)C4)cc2)O1 (some centres unmarked) [Compound 59] |
| 0.06 (≈ 0.112 µM) | O=C1NC[C@@H](COc2ccc(C34CC(C(F)(F)C(O)(Cn5cnnn5)c5ccc(F)cc5F)(C3)C4)cc2)O1 (some centres unmarked) [Compound 60] |
| 0.016 (≈ 0.0325 µM) | COCCOc1ccc(C23CC(C(F)(F)C(O)(Cn4cnnn4)c4ccc(F)cc4F)(C2)C3)cc1 (centres unmarked) [Compound 62] |
| 0.13 (≈ 0.253 µM) | NS(=O)(=O)Oc1ccc(C23CC(C(F)(F)C(O)(Cn4cnnn4)c4ccc(F)cc4F)(C2)C3)cc1 (centres unmarked) [Compound 68] |
| 0.13 (≈ 0.232 µM) | O=C(COc1ccc(C23CC(C(F)(F)C(O)(Cn4cnnn4)c4ccc(F)cc4F)(C2)C3)cc1)N1CCOCC1 (centres unmarked) [Compound 70] |
| 0.03 (≈ 0.0571 µM) | OC(Cn1cnnn1)(c1ccc(F)cc1F)C(F)(F)C12CC(c3ccc(OCc4ccccn4)cc3)(C1)C2 (centres unmarked) [Compound 72] |
| 0.016 (≈ 0.0301 µM) | OC(Cn1cnnn1)(c1ccc(F)cc1F)C(F)(F)C12CC(c3ccc(OCc4nccs4)cc3)(C1)C2 (centres unmarked) [Compound 73] |
| 0.13 (≈ 0.238 µM) | CN1CCC(COc2ccc(C34CC(C(F)(F)C(O)(Cn5cnnn5)c5ccc(F)cc5F)(C3)C4)cc2)CC1 (centres unmarked) [Compound 74] |
| 0.13 (≈ 0.251 µM) | CN1CC(COc2ccc(C34CC(C(F)(F)C(O)(Cn5cnnn5)c5ccc(F)cc5F)(C3)C4)cc2)C1 (centres unmarked) [Compound 75] |
| 0.016 (≈ 0.0336 µM) | COC(=O)c1ccc(C23CC(C(F)(F)C(O)(Cn4cnnn4)c4ccc(F)cc4F)(C2)C3)cc1 (centres unmarked) [Compound 77] |

| MIC [µg/mL] | SMILES |
| --- | --- |
| 0.25 (≈ 0.526 µM) | CNC(=O)c1ccc(C23CC(C(F)(F)C(O)(Cn4cnnn4)c4ccc(F)cc4F)(C2)C3)cc1 (centres unmarked) [Compound 79] |
| 0.06 (≈ 0.113 µM) | OC(Cn1cnnn1)(c1ccc(F)cc1F)C(F)(F)C12CC(CN3CCC(Oc4ccccc4)CC3)(C1)C2 (centres unmarked) [Compound 80] |
| 0.06 (≈ 0.135 µM) | N#Cc1ccc(C23CC(C(F)(F)C(F)(Cn4cncn4)c4ccc(F)cc4F)(C2)C3)cc1 (centres unmarked) [Compound 83] |
| 0.25 (≈ 0.497 µM) | OC(Cn1cnnn1)(c1ccc(F)cc1F)C(F)(F)C12CC(c3ccc(O[C@@H]4CCNC4)cc3)(C1)C2 (some centres unmarked) [Compound 84] |
| 0.03 (≈ 0.0548 µM) | CN1CCOC(COc2ccc(C34CC(C(F)(F)C(O)(Cn5cnnn5)c5ccc(F)cc5F)(C3)C4)cc2)C1 (centres unmarked) [Compound 85] |
| 0.06 (≈ 0.107 µM) | OC(COCc1ccc(C23CC(C(F)(F)C(O)(Cn4cnnn4)c4ccc(F)cc4F)(C2)C3)cn1)C(F)(F)F (centres unmarked) [Compound 86] |
| 0.016 (≈ 0.0346 µM) | CCOc1ccc(C23CC(C(F)(F)C(O)(Cn4cnnn4)c4ccc(F)cc4F)(C2)C3)cc1 (centres unmarked) [Compound 87] |
| 0.25 (≈ 0.504 µM) | CS(=O)(=O)c1ccc(C23CC(C(F)(F)C(O)(Cn4cnnn4)c4ccc(F)cc4F)(C2)C3)cc1 (centres unmarked) [Compound 88] |
| 0.016 (≈ 0.0313 µM) | O[C@H](COc1ccc(C23CC(CC(O)(Cn4cnnn4)c4ccc(F)cc4F)(C2)C3)cc1)C(F)(F)F (some centres unmarked) [Compound 89] |
| ≤ 0.0039 | N#Cc1ccc(C23CC(CC(O)(Cn4cncn4)c4ccc(F)cc4F)(C2)C3)cc1 (centres unmarked) [Compound 91] |
| ≤ 0.0039 | OC(Cn1cncn1)(c1ccc(F)cc1F)C(F)(F)C12CC(c3ccc(-n4cncn4)nc3)(C1)C2 (centres unmarked) [Compound 95] |
| 0.0078 (≈ 0.0142 µM) | OC(COc1ccc(C23CC(C(F)(F)C(O)(Cn4cnnn4)c4ccc(F)cc4F)(C2)C3)cn1)C(F)(F)F (centres unmarked) [Compound 97] |
| 0.016 (≈ 0.0293 µM) | OC(CNc1ccc(C23CC(C(F)(F)C(O)(Cn4cnnn4)c4ccc(F)cc4F)(C2)C3)cn1)C(F)(F)F (centres unmarked) [Compound 99] |
| 0.0078 (≈ 0.0143 µM) | OC(CNc1ccc(C23CC(C(F)(F)C(O)(Cn4cncn4)c4ccc(F)cc4F)(C2)C3)cn1)C(F)(F)F (centres unmarked) [Compound 100] |
| 0.06 (≈ 0.116 µM) | OC(Cn1cnnn1)(c1ccc(F)cc1F)C(F)(F)C12CC(c3cnc(OCC(F)(F)F)cn3)(C1)C2 (centres unmarked) [Compound 107] |
| 0.06 (≈ 0.109 µM) | OC(COc1cnc(C23CC(C(F)(F)C(O)(Cn4cnnn4)c4ccc(F)cc4F)(C2)C3)cn1)C(F)(F)F (centres unmarked) [Compound 108] |
| 0.06 (≈ 0.116 µM) | OC(Cn1cnnn1)(c1ccc(F)cc1F)C(F)(F)C12CC(c3cnc(OCC(F)(F)F)nc3)(C1)C2 (centres unmarked) [Compound 110] |
| 0.125 (≈ 0.256 µM) | OC(Cn1cnnn1)(c1ccc(F)cc1F)C(F)(F)C12CC(c3ccc(C(F)(F)F)nc3)(C1)C2 (centres unmarked) [Compound 115] |
| 0.06 (≈ 0.116 µM) | CN1CCN(c2ccc(C34CC(C(F)(F)C(O)(Cn5cnnn5)c5ccc(F)cc5F)(C3)C4)cn2)CC1 (centres unmarked) [Compound 117] |

same assay, conditions: lowest concentration inhibiting growth of yeast by 50%; 35° C., 24 hours; RPMI1640

| MIC Candida albicans ATCC MYA-2876 [µg/mL] | SMILES |
| --- | --- |
| 0.016 (≈ 0.0333 µM) | O[C@](Cn1cnnn1)(CC12CC(c3ccc(OCC(F)(F)F)cc3)(C1)C2)c1ccc(F)cc1F [Compound 48A] |
| 0.0078 (≈ 0.0154 µM) | OC(Cn1cnnn1)(c1ccc(F)cc1F)C(F)(F)C12CC(C3=CCN(CC(F)(F)F)CC3)(C1)C2 (centres unmarked) [Compound 118] |
